System: GUMC-403
Test: viability at highest tested concentration (max response) relative to DMSO (% of DMSO control); higher = less cytotoxic
Details: library / dose series: MIPE library, 11-point 1:3 dilution, 48 h
In short: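 Viability at the highest tested concentration is given relative to vehicle control. For this, conditionally reprogrammed patient-derived GUMC-403 papilloma cells at 700/well in 1536-well plates were exposed to 23 nL of pinned compound for 48 h. Luminescence from CellTiter-Glo was read on a ViewLux and scaled between empty wells (0%) and vehicle wells (100%).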

SMILES	viability (top concentration 46.1 µM)	further results
c1cc(-c2cnn3cc(-c4ccc(OCCN5CCCCC5)cc4)cnc23)ccn1	48.4	
CCc1cccc(CC)c1NC(=O)N1Cc2[nH]nc(NC(=O)c3ccc(N4CCN(C)CC4)cc3)c2C1	87.2	
CCCCCN(CCC12CC3CC(CC(C3)C1)C2)C(=O)NCCCc1ccncc1	89.8	
COC(=O)C/1=C/O[C@@H](O)[C@H]\2[C@@H]1C\C=C2CO	94.5	
CN1CCC(=C2c3ccccc3CCc3sccc32)CC1	115	
CN1[C@@H]2CCC[C@H]1C[C@@H](NC(=O)c1nn(C)c3ccccc13)C2.Cl	105	
COc1ccc(CCN2CCN(CCCc3ccccc3)CC2)cc1OC	120	
CC1(N2CCC(n3c([C@@H]4CCCNC4)nc4ccccc43)CC2)CCCCCCC1	115	
O=C1NC(=O)[C@@H](c2cn3c4c(cccc24)CCC3)[C@@H]1c1c[nH]c2ccccc12	102	
COc1ccccc1[C@H](c1cccc2ccccc12)[C@@](C)(C#N)C(=O)N1CCC(c2cccc(C(F)(F)F)c2)CC1	86.3	
CC(=O)NC(C)c1ccc(Oc2ccc(OC(C)C)cc2)cc1 (configuration not stated)	121	
Nc1ncnc2c1c(-c1cccc(OCc3ccccc3)c1)cn2C1CC(CN2CCC2)C1 (configuration not stated)	98.4	
CNC(=O)c1cc(Oc2ccc(NC(=O)Nc3ccc(Cl)c(C(F)(F)F)c3)c(F)c2)ccn1	101	
CCCC[S+](=N)([O-])CCC(N)C(=O)O (configuration not stated)	111	
Cc1cn(-c2cc(NC(=O)c3ccc(C)c(Nc4nccc(-c5cccnc5)n4)c3)cc(C(F)(F)F)c2)cn1	130	
Cc1ccc([C@@H]2O[C@H](CO)[C@@H](O)[C@H](O)[C@H]2O)cc1Cc1ccc(-c2ccc(F)cc2)s1	108	
CC#CCn1c(N2CCC[C@@H](N)C2)nc2c1c(=O)n(Cc1nc(C)c3ccccc3n1)c(=O)n2C	111	
Cc1ccc(NC(=O)c2cccc(N(C)C)c2)cc1NC(=O)c1ccc(O)cc1	96.6	
OCc1ccccc1O[C@@H]1O[C@H](CO)[C@@H](O)[C@H](O)[C@H]1O	151	
O=P(O)(O)C(O)(Cc1cccnc1)P(=O)(O)[O][Na] (configuration not stated)	123	
O=C(O)CCc1ccc(NCc2cccc(Oc3ccccc3)c2)cc1	122	

SMILES	viability (top concentration 46.1 µM)	further results
COc1ccc(-c2ccc3cc(C(=O)O)ccc3c2)cc1C12CC3CC(CC(C3)C1)C2	112	
N[S+]([O-])(=O)C1=CC=C(NC/2=C/C(=O)C3=CC=CC=C3C2=O)C=C1	142	
N=C1N[C@H]2[C@H](CS[C@H]2CCCCC(=O)O)N1		viability (top concentration 23 µM): 134
COc1nc(N)nc2c1ncn2[C@@H]1O[C@H](CO)[C@@H](O)[C@@H]1O	120	
O=C1CC[C@@]2(O)[C@H]3Cc4ccc(O)c5c4[C@@]2(CCN3CC2CC2)[C@H]1O5	137	
CN\1C(=O)/C(=C(\N=C1N2CCCC[S+]2([O-])=O)C(=O)NCC3=CC=C(F)C=C3)O	121	
CC[C@H](/C=C/[C@@H](C)[C@H]1CC[C@H]2[C@@H]3CC=C4C[C@@H](O)CC[C@]4(C)[C@H]3CC[C@]12C)C(C)C		viability (top concentration 23 µM): 104
CN(CCOc1ccc(NS(C)(=O)=O)cc1)CCc1ccc(NS(C)(=O)=O)cc1	127	
CCOC(=O)Nc1ccc(NCc2ccc(F)cc2)cc1N	81.8	
NC(=O)c1cccc(-c2cccc(OC(=O)NC3CCCCC3)c2)c1	104	
COc1cc2c(cc1-c1c(C)noc1C)ncc1[nH]c(=O)n([C@H](C)c3ccccn3)c12	69.1	
COc1ccccc1N1CCN(CC(O)COc2cccc3ccccc23)CC1 (configuration not stated)	99.1	
COC1=CC=C2[N](CCCN(C)C)C=C(C2=C1)C/3=C(/C(=O)NC3=O)C4=C[NH]C5=C4C=CC=C5	102	
Nc1nc(N)c(N=O)c(OCC2CCCCC2)n1	88.3	
O=C1c2cccc(O)c2C(=O)c2c(O)cc(CO)cc21	92.9	
O=C(/C=C/c1ccc(/C=C/C(=O)Nc2ccc(C3=NCCN3)cc2)cc1)Nc1ccc(C2=NCCN2)cc1	117	
CC(=O)N(C)C1(c2ccccc2)CCN(CCC[C@]2(c3ccc(Cl)c(Cl)c3)CCCN(C(=O)c3ccccc3)C2)CC1	96.7	
O=C(CCN1CCN(C(=O)OCc2cc(Cl)cc(Cl)c2)CC1)c1ccc2[nH]c(=O)oc2c1	109	
CN[C@@H](C)[C@H]1[C@H](O)C[C@@]2(C)[C@@H]3CC[C@H]4C(C)(C)[C@@H](NC)CC[C@@]45C[C@@]35CC[C@]12C	96	
C=CC1=C(C(=O)O)N2C(=O)[C@@H](NC(=O)/C(=N\O)c3csc(N)n3)[C@H]2SC1	130	
CCC(c1ccc(O)cc1)C(CC)c1ccc(O)cc1 (configuration not stated)	116	

SMILES	viability (top concentration 46.1 µM)	further results
CCC[C@H]1C[C@H](C(=O)N[C@@H]([C@@H]2O[C@@H](SC)[C@@H](O)[C@@H](O)[C@H]2O)[C@H](C)Cl)N(C)C1	118	
CNC(=O)CN1CCC(Oc2cc3c(Nc4cccc(Cl)c4F)ncnc3cc2OC)CC1	61.1	
Cn1c(CNc2ccc(C(=N)N)cc2)nc2cc(C(=O)N(CCC(=O)O)c3ccccn3)ccc21		viability (top concentration 23 µM): 134
CC(C)(O)CC[C@@H](O)[C@](C)(O)[C@H]1CC[C@@]2(O)C/3=C/C(=O)[C@@H]4C[C@@H](O)[C@@H](O)C[C@]4(C)[C@H]3CC[C@]12C	111	
CCC(=O)NC[C@H](Cc1ccc(OCCc2nc(-c3ccccc3)oc2C)cc1)N/C(C)=C\C(=O)c1ccc(C(F)(F)F)cc1	109	
O=C(Nc1ncc(-c2cc(C(F)F)nn2-c2c(Cl)cccc2Cl)s1)C1CC1	84.9	
CC[C@H]1/C=C\C=C/C[C@@H](C)[C@H](O)[C@@](C)(O)C(=O)[C@@H](C)[C@H](O)[C@@H](C)C(=O)[C@@H](C)[C@H](O)[C@@H](C)/C=C/C(=O)O[C@@H]2[C@H](C)[C@H](CC1)O[C@]1(CC[C@H](C)[C@H](C[C@@H](C)O)O1)[C@H]2C	146	
O=C(NNC(=O)c1ccc(CN[S+](=O)([O-])c2ccc(F)c(Cl)c2)cc1)c1ccccc1	129	
C[C@H]1[C@@H](OC(=O)CCC(=O)O)O[C@@H]2O[C@@]3(C)CC[C@H]4[C@H](C)CC[C@@H]1[C@@]24OO3	97.7	
COC/1=C/[C@@H]2[C@@H]3CC4=C(C(=C(OC)C=C4)O)[C@]2(CCN3C)CC1=O	65	
CN1/C=C(\N=C(NC2=CC=C(C=C2)C(=O)N3CCOCC3)/C1=O)/C4=C(C)C(=CC=C4)NC(=O)C5=CC=C(C=C5)C(C)(C)C	117	
CCOc1ccccc1N/N=C1/C(=O)N(c2nc(-c3ccccc3)cs2)N=C1C	115	
COc1cc(Nc2ncc(F)c(Nc3ccc4c(n3)NC(=O)C(C)(C)O4)n2)cc(OC)c1OC	89.6	
CC(C)(F)C[C@H](N[C@@H](c1ccc(-c2ccc([S+](C)(=O)[O-])cc2)cc1)C(F)(F)F)C(=O)NC1(C#N)CC1	110	
Cn1ccc2cc3c(cc21)CCN3C(=O)Nc1cccnc1	126	
Cc1cc(-c2nnc3n2CCCCC3)c(C)n1-c1ccccc1	103	
C[Se]CCC(N)C(=O)O (configuration not stated)		viability (top concentration 92.2 µM): 98
CCn1c(-c2nonc2N)nc2c(C#CC(C)(C)O)ncc(OC[C@H]3CCCNC3)c21	100	
ClC1=CC=C2N/C3=N/C(=O)CN3CC2=C1Cl	94.9	
Cc1c(C(=O)Nc2cccc(C(F)(F)F)c2)cc(-c2ccccc2)n1CCCN1CCOCC1	98.9	
OC1CCC(Nc2ncc3nc(Nc4c(F)cc(F)cc4F)n([C@@H]4CCOC4)c3n2)CC1 (some centres not stated)	95.5	

SMILES	viability (top concentration 46.1 µM)	further results
N[S+](=O)([O-])c1cc2c(cc1Cl)NC(C(Cl)Cl)N[S+]2(=O)[O-] (configuration not stated)	98.6	
COc1ccc2c(c1OC)C(=O)O[C@H]2[C@H]1c2c(cc3c(c2OC)OCO3)CCN1C	103	
CC(C)(Sc1ccc(CCN(CCCCC2CCCCC2)C(=O)NC2CCCCC2)cc1)C(=O)O	109	
O=[S+]([O-])(F)Cc1ccccc1	84.1	
O=C1NCCc2[nH]c(-c3ccncc3)cc21	125	
CCC(C)(C)c1ccc(CC(C)CN2C[C@@H](C)O[C@@H](C)C2)cc1 (some centres not stated)	96.2	
CC(C)(C)C1=NC2=C([NH]1)C3=CC=C(F)C=C3C4=C2\C=C/NC4=O	133	
CCCCc1nc2cc(/C=C/C(=O)NO)ccc2n1CCN(CC)CC	67.2	
O=C(O)/C=C/c1ccc(O)c(O)c1	120	
C=C1C(=O)OC2/C=C(/C)CC/C=C(/C)CCC12 (configuration not stated)	113	
O=C(O)CCC1CCC(c2cc(F)ccc2F)([S+](=O)([O-])c2ccc(Cl)cc2)CC1 (configuration not stated)	99.9	
CN1CCC(CC1)=C2C3=C(C=CC=C3)\C=C/C4=C2C=CC=C4	111	
COc1ccc2c(c1)c(CC(=O)OCC(=O)O)c(C)n2C(=O)c1ccc(Cl)cc1	90.3	
Nc1cc(N2CCCCC2)nc(N)[n+]1[O-]	91.1	
NC(=O)c1ncn([C@@H]2O[C@H](CO)[C@@H](O)[C@H]2O)n1	99.6	
CC[C@@H]1/C=C(\C)C[C@H](C)C[C@H](OC)[C@H]2O[C@@](O)(C(=O)C(=O)N3CCCC[C@H]3C(=O)O[C@H](/C(C)=C/[C@@H]3CC[C@H](Cl)[C@H](OC)C3)[C@H](C)[C@@H](O)CC1=O)[C@H](C)C[C@@H]2OC	63.6	
O=C1CCC[C@@H]2[C@H]3CCC[N+]4([O-])CCC[C@@H](CN12)[C@@H]34 (some centres not stated)	106	
c1cc(CN2CCCNCCNCCCNCC2)ccc1CN1CCCNCCNCCCNCC1	144	
CCCCCCCCCCCC(CC1OC(=O)C1CCCCCC)OC(=O)C(CC(C)C)NC=O (configuration not stated)	101	
